Laboratory results as given in article PMC12955470, “A novel approach to combat Pseudomonas aeruginosa: repurposing pharmaceuticals for inhibition of phospholipase A” (Microbiology Spectrum, 2026).

Biological target: T1, PlaF (Pseudomonas aeruginosa, UniProt G3XCU7)
T1 construct: gene PA2949; purified PlaF (pBBR-plaFH6, His-tagged) reconstituted into phospholipid liposomes
Test: p-NPB esterase assay with purified PlaF; Michaelis-Menten kinetics (Km increased, vmax unchanged)
Assay type: biochemical

T1 sequence (G3XCU7 entry or part of it): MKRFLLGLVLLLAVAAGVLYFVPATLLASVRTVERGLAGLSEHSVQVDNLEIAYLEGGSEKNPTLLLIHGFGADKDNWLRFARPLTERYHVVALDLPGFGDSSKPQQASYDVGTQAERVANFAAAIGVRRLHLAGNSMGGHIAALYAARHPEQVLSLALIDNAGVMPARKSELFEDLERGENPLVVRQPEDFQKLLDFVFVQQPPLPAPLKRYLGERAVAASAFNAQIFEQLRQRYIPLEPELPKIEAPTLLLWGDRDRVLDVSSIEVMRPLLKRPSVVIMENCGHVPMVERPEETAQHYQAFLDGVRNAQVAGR

| Structure (SMILES) | inhibition at 69.2 µM [%] | inhibition at 400 µM [%] |
| --- | --- | --- |
| O=C(/C=C/c1ccc(/C=C/C(=O)Nc2ccc(C3=NCCN3)cc2)cc1)Nc1ccc(C2=NCCN2)cc1 [GW4869] | ~30 |  |
| COCCN1CCC(N(Cc2ccc(-c3ccc(C(F)(F)F)cc3)cc2)C(=O)Cn2c(SCc3cccc(F)c3F)cc(=O)c3ccccc32)CC1 [rilapladib] |  | ~50 |
| CCN(CC)CCN(Cc1ccc(-c2ccc(C(F)(F)F)cc2)cc1)C(=O)Cn1c(SCc2ccc(F)cc2)nc(=O)c2c1CCC2 [darapladib] |  | ~50 |
